Data: paper PMC5572722, “Dimerization in tailoring uptake efficacy of the HSV-1 derived membranotropic peptide gH625” (Scientific Reports, 2017)
Positions of bridges follow the written chain, without caps; N, C: chain ends. Residues, ends and D or L forms follow the SMILES beside them. Chains are numbered I, II in the order given. No end group written: not given here.

How the values were obtained:
[1] = lipid 0.1 mM, 25 °C, outer NBD reduced with 100 mM dithionite, average of three experiments
Procedure: The extent of lipid mixing between only the inner monolayers of vesicles in solution, labelled with NBD and Rho, was determined adding an aqueous reducing agent (dithionite) which eliminated the NBD fluorescence from the vesicle membranes’ outer monolayer.
Figure 2 Inner monolayer in DOPC/Chol 60/40 (mol/mol) (A) and DOPG/Chol 60/40 (mol/mol) (B). […] Lipid concentration is 0.1 mM. Percentage of inner monolayer fusion as a function of the peptide/lipid ratio is reported and each trace represents an average of three independent experiments.
Membrane fusion was monitored by the fluorescence resonance energy transfer assay (FRET)[70] at 25 °C. Two populations of LUVs, one labelled with 0.6 mol% of NBD (donor) and Rho (acceptor) and one unlabelled were mixed and the variation in NBD fluorescence due to membrane fusion was determined. After the addition of aliquots of peptides the change in donor emission (excitation wavelength 465 nm, emission wavelength 530 nm) was monitored. […] The 100% of fusion was determined upon the addition of Triton X-100 (0.05% v/v). All results are an average of at least three experiments. A cut off filter at 515 nm was used.
The dithionite was removed through size exclusion chromatography, Sephadex G-50 DNA Grade, (GE Healthcare, Pharmacia, Uppsala, Sweden) with buffer containing 10 mM TRIS, 100 mM NaCl, and 1 mM EDTA, pH 7.4.

[2] = Surface plasmon resonance binding to lipid bilayer, L1 chip, two-state model; settings: affinity constant of second step, K2 = ka2/kd2
Excerpt: To investigate the mode of action of gH625-H7 and gH625-G7 and for comparisons with gH625[6], we used SPR. In a previous paper[7] we also reported the data for two control peptides: the melittin and the HIV fusion peptide (gp41-FP). Figure 6 reports the obtained sensorgrams of the binding and an increase of the RU signal intensity as a function of the peptide concentration can be observed. […] In particular, all the sensorgrams obtained for gH625[7] and gH625-G7 indicate the binding to the lipid surfaces is characterized by an initial fast association process which then slows down considerably towards the end of the peptide injection. The dissociation follows a similar trend, characterized by the signal falling rapidly at the end of injection when the peptide is no longer present and the buffer flow removes free or weekly bound peptide.
The average values for the rate constants obtained with the two-state model analysis are reported in Table 4 along with the affinity constant values (K A). The data clearly indicate the main influence on the overall binding constant of the fast association rate and slow dissociation rate of the first step.
We used a BIAcore 3000 analytical system (Biacore, Uppsala, Sweden) equipped with a L1 sensor chip which contains hydrophobic alkanethiol chains, with exposed polar head groups; a lipid bilayer was created by introducing liposomes to the chip. SUVs composed by DOPG/Chol (60/40) (80 μL, 0.5 mM) were applied to the chip surface at a flow rate of 2 μL/min. […] BSA was used as a negative control (25 μL, 50 μL/min […] in PBS) to confirm complete coverage of the nonspecific binding sites. Several sensorgrams were obtained with 30 μL of the peptide solutions injected at a flow rate of 5 μL/min, followed by PBS for 15 min to allow peptide dissociation. […]
Kinetic data were assessed through the χ^2 values, plots of the residuals from the model fitting and standard deviations. […]

[3] = Acceptor photobleaching FRET, GUV fusion; settings: NBD/Rhodamine GUVs mixed 1:4 with unlabelled GUVs, peptide:GUVs ratio 0.5
Excerpt: Figure 10 Mean fluorescence of GUVs suspension resulting after gH625 or gH625-H7 administration, calculated by the AccPbFRET plug in of ImageJ. The FRET efficiency E is 0.729, calculated as follows: E = 1 − (F Donor quenched by acceptor/F Donor de quenched) (A). Time course of FRET effect due to gH625 or gH625-H7 administration to GUVs. Values are expressed as integrated density, defined as the mean gray value per the mean area. Each time point represents the same field acquired in both channels. Each data set represents the mean of at least 10 GUVs for each field (B,C).
To evaluate the fusion of GUVs due to the addition of gH625 and gH625-H7, a slightly modified protocol for acceptor photobleaching FRET was performed. […] An aliquot of the mix was charged in the Burker’s chamber under Axioskop (Zeiss) fluorescence microscope; images were acquired using Axiocam Mrc5 CCD camera (Zeiss) in both at 525 nm and 615 nm and analysed with the Physiology module of Axiovision software 4.8 (Zeiss) to calculate the basic fluorescence of the donor. Samples were then treated with gH625 and gH625-H7 to a peptide:GUVs ratio of 0.5 and images were immediately acquired to calculate the fluorescence of the donor and the photobleaching of the acceptor (only used as a control for the amount of bleaching) after the exposure to peptides. […]

Row | Compound | fusion of the inner monolayer, DOPC/Chol LUVs [1] | K2 [2] | fusion of the inner monolayer, DOPG/Chol LUVs [1] | increase of donor (NBD) fluorescence compared to GUVs alone [3] [fold]
1 | CC[C@H](C)[C@H](NC(=O)[C@H](CC(C)C)NC(=O)[C@H](C)NC(=O)[C@H](CC(N)=O)NC(=O)[C@H](Cc1ccc(O)cc1)NC(=O)[C@H](Cc1c[nH]cn1)NC(=O)[C@H](C)NC(=O)[C@H](Cc1c[nH]c2ccccc12)NC(=O)[C@H](CCCNC(=N)N)NC(=O)[C@@H](NC(=O)[C@H](CC(C)C)NC(=O)[C@@H](NC(=O)[C@H](CO)NC(=O)[C@H](C)NC(=O)[C@H](CC(C)C)NC(=O)CNC(=O)[C@@H](N)Cc1c[nH]cn1)[C@@H](C)O)[C@@H](C)O)C(=O)N[C@@H](CCCNC(=N)N)C(=O)N[C@@H](C)C(=O)N[C@@H](Cc1ccccc1)C(=O)NCC(=O)NCC(=O)NCC(=O)N[C@@H](CCCCN)C(=O)N[C@@H](CCCCN)C(=O)N[C@@H](CCCCN)C(=O)N[C@@H](CCCCN)C(N)=O [gH625-G7] (H-HGLASTLTRWAHYNALIRAFGGGKKKK-NH2) | only a small fusion | 5.72 | – | –
2 | I: HGLASTLTRWAHYNALIRAFGCGKKKK-NH2 / II: HGLASTLTRWAHYNALIRAFGCGKKKK-NH2 (disulfide I:22-II:22) [gH625-H7] | complete fusion | 3.89 | complete fusion | 3.92
3 | CC[C@H](C)[C@H](NC(=O)[C@H](CC(C)C)NC(=O)[C@H](C)NC(=O)[C@H](CC(N)=O)NC(=O)[C@H](Cc1ccc(O)cc1)NC(=O)[C@H](Cc1c[nH]cn1)NC(=O)[C@H](C)NC(=O)[C@H](Cc1c[nH]c2ccccc12)NC(=O)[C@H](CCCNC(=N)N)NC(=O)[C@@H](NC(=O)[C@H](CC(C)C)NC(=O)[C@@H](NC(=O)[C@H](CO)NC(=O)[C@H](C)NC(=O)[C@H](CC(C)C)NC(=O)CNC(=O)[C@@H](N)Cc1c[nH]cn1)[C@@H](C)O)[C@@H](C)O)C(=O)N[C@@H](CCCNC(=N)N)C(=O)N[C@@H](C)C(=O)N[C@@H](Cc1ccccc1)C(N)=O [gH625] (H-HGLASTLTRWAHYNALIRAF-NH2) | only a small fusion | 0.41 | – | 3.71
